Values after ≈ are worked out from the molar mass of the structure shown. Like-named read-outs stand apart in the source and are kept apart here. Each block holds one compound with its values, some of them ahead of it.
Columns and labels:
[1] = tested on: C. acnes (ATCC No. 6919); assay: Growth inhibition of C. acnes in Fluid Thioglycollate culture tubes; assay type: cell-based, Corynebacterium acnes; details: for MIC: Cutibacterium acnes, read-out: Inhibitory Concentration at 72 Hours; for Effect on growth of C. acnes: at 200 μg/ml.
Method: Culture tubes are prepared containing 10 ml. of freshly prepared Difco Fluid Thioglycollate medium with agar and indicator. […] Each tube is inoculated with 0.2 ml. of a 48 hour culture of C. acnes (ATCC No. 6919), and the tubes are inspected at 24 hour intervals. Incubation at 37° C.

[2] = molecular target: T1, crude enzyme from cultures of Corynebacterium acnes (ATCC No. 6919) (lipolytic enzymes) (Cutibacterium acnes, UniProt Q59644); assay: Inhibition of triolein hydrolysis by Corynebacterium acnes lipolytic enzyme (radiolabelled triolein, TLC of free oleic acid); assay type: biochemical; details: 60 minutes at room temperature, pH 7.1 phosphate buffer, triolein 2mM; read-out: Concentration Causing 50% Inhibition of Triolein (2mM) Hydrolysis
T1 construct: crude ethanol-acetic acid precipitate of three-day cultures, Sephadex G-25 and G-100 fractions
Method: A 1 ml. aliquot of glyceryl trioleate-(9,10)T is separated on TLC (silica gel) in hexane-ether-acetic acid (70:30:1) and the area corresponding to pure triolein is eluted. The radioactive material is diluted with cold, previously purified triolein (8.8639 g.) in 500 ml. of benzene. The resulting solution is 20mM in triolein.
The crude enzyme prepared by ethanol-acetic acid precipitation from three day cultures of Corynebacterium acnes (ATCC No. 6919) is passed successively through Sephadex G-25 and G-100 columns, and the concentrate is diluted to 250 ml. for use in the assay described below.
An emulsion is prepared by evaporating 5.70 ml. of the benzene solution, prepared in Example 1 above; 6 ml. of 10% gum arabic in water and 3.4 ml. of 0.05M phosphate buffer (pH 7.1) are added, and the mixture is sonicated for three 20 second intervals. Aliquots (0.7 ml.) containing […] emulsified triolein are added to each of 10 1/6 dram vials for each compound to be assayed.
Vial No. 1 receives an additional 0.3 ml. buffer at time 0, and acts as 0 control. […]
The hydrolysis is allowed to proceed for 60 minutes at room temperature, after which time, the vials are transferred to a silicone oil bath and maintained at 95° C. […] The areas corresponding to free oleic acid (after visualization with iodine vapor) are scraped directly into scintillation vials and counted. […]

[3] = Double-blind crossover study of 5% oleic acid diethanolamide gel on the face, forehead surface lipids; assay type: in vivo, human subjects
Text: The subjects were selected on the basis of having a higher than 20 % free fatty acid content in their individual total sebum. None were on systemic antibiotic therapy during the course of this study.
The subjects were instructed to wash three times daily with Ivory soap, immediately after rinsing and drying the face to apply sufficient medication (active agent or placebo) to cover the entire face with the exception of the eye and cheekbone areas, and to gently massage the medication into the skin. Each treatment was continued for the last 6 weeks of the study, no medication being used, however, during the two-week no-treatment period. No other therapy was permitted on the face during the course of the study. No medicated soaps or shampoos, oily hair dressings or any hair sprays were permitted. Cosmetics other than lipstick and eyeshadow were not to be applied on the days of sebum collection. On days of sebum collection, the forehead was not to be washed, wiped, or touched in the 6 hours between the time of cleansing and the time of sebum collection.
Twice a week during the first two weeks of the study, a forehead sample of surface lipids were obtained from each subject and measured for total weight and free fatty acids. No medication or placebo therapy was employed during this two-week period. These samples from each subject constitute the baseline data for this study. Twice a week for the next 6 weeks, further surface lipid samples were taken from each subject and analyzed. In all cases, the surface lipid samples were collected by drawing sebum from both the left and right sides of the subject's forehead.

[4] = ATCC6919, 72 hours, 37° C., Difco Fluid Thioglycollate medium
[5] = 5% gel of Example 8, topical three times daily, two-week treatment, 21 subjects

T1 sequence (Q59644 entry or part of it): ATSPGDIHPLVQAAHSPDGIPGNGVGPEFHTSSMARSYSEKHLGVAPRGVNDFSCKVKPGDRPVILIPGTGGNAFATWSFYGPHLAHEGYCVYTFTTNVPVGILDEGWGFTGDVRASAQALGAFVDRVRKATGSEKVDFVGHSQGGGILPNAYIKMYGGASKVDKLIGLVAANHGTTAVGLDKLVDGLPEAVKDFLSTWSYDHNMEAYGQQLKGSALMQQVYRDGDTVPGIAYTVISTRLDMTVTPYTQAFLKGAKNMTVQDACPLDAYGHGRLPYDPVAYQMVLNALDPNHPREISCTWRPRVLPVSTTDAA

Compound: CCCCCCCCCCCC(=O)N(CCO)CCO [Lauric acid diethanolamide]
- MIC ([1]; ATCC6919, 72 h): ~12.5 µg/mL (≈ 43.5 µM)

Compound: N-morpholinooleamide
- IC50 [2]: 700 µM

- MIC [1, 4]: > 300 µg/mL
Compound: C=CCCCCCCCCC(=O)N(CCO)CCO [Undecylenic diethanolamide, reference compound]

Compound: CCCCCCCC/C=C\CCCCCCCC(=O)OCC(COC(=O)CCCCCCC/C=C\CCCCCCCC)OC(=O)CCCCCCC/C=C\CCCCCCCC [Triolein, reference compound]
- Effect on growth of C. acnes ([1]; 72 hours): growth stimulatory

Compound: CCCCCCCC/C=C\CCCCCCCC(=O)N(CCO)CCO [Oleic acid diethanolamide]
- MIC [1, 4]: ~12.5 µg/mL (≈ 33.8 µM)
- free fatty acid values, average lowering versus placebo [3, 5]: 11%
- total sebum values, average lowering versus placebo [3, 5]: 8%
- carryover effect upon total sebum level ([3]; 5% gel, crossover study): no indication of a carryover effect
- overall reduction of average free fatty acid content, end of active treatment versus immediately prior to treatment ([3]; 5% gel, two-week treatment): approximately 20%
- Maximum reduction in free fatty acid levels, subject two ([3]; 5% gel, two-week treatment, subject two): 78%
- duration of carryover effect upon free fatty acid levels after termination of use ([3]; subjects given active agent before placebo): at least two weeks

- MIC [1, 4]: ~6.25 µg/mL (≈ 19.8 µM)
Compound: CCCCCCCCCCCCCC(=O)N(CCO)CCO [Myristic acid diethanolamide]

- MIC [1, 4]: ~6.25 µg/mL (≈ 18.2 µM)
Compound: CCCCCCCCCCCCCCCC(=O)N(CCO)CCO [Palmitic acid diethanolamide]

Compound: CCCCCCCC/C=C\CCCCCCCC(=O)O [Oleic acid, reference compound]
- Effect on growth of C. acnes ([1]; 72 hours): growth stimulatory

- MIC [1, 4]: ~12.5 µg/mL (≈ 33.6 µM)
Compound: CC(C)CCCCCCCCCCCCCCC(=O)N(CCO)CCO [Isostearic acid diethanolamide]
